Where two headings read alike, the source gives them in different places.
Key:
Type in all cases: binding
HLA-A*02:01 [1] = molecular target: T1, HLA-A*02:01 (Homo sapiens, UniProt P04439, D140Y/D185E/D98H/E176V/E277Q/G131W/G231S/I119V/I121R/I166T/I218V/L300P/L318F/N151K/N90K/P208A/P217A/Q86G/Q94H/R138H/R169H/T345S)
HLA-A*24:02 [2] = molecular target: T2, HLA-A*24:02 (Homo sapiens, UniProt P04439, D101N/D140Y/D185E/E176V/E190D/F33S/G103R/G107R/I119L/I121M/I306V/K335N/L105A/L180Q/L300P/N151K/N90K/Q86E/Q94H/R106L/R138H/R89G/T104I/T345S/V100E/W191G/Y123F); settings: duplicated experiments, positive binder >40%
HLA-A*24:02 [3] = molecular target: T2, HLA-A*24:02
HLA-A*24:02 [4] = molecular target: T2, HLA-A*24:02; settings: time points 0-8 h
HLA-A*30:01 = HLA-A*30:01 (Homo sapiens, UniProt P04439, D140H/D185E/E176W/F33S/G80R/H175R/K168Q/R138E/R41S); settings: duplicated experiments, positive binder >40%
HLA-A*30:02 [5] = molecular target: T3, HLA-A*30:02 (Homo sapiens, UniProt P04439, D101N/D140H/D185E/E176R/F33S/G80R/H175R/K168Q/Q94H/R138E/R41S/V100E); settings: duplicated experiments, positive binder >40%
HLA-A*30:02 [6] = molecular target: T3, HLA-A*30:02
HLA-A*30:02 [7] = molecular target: T3, HLA-A*30:02; settings: time points 0-8 h
HLA-A*68:01 [8] = molecular target: T4, HLA-A*68:01 (Homo sapiens, UniProt P04439, A269V/D185E/E176V/E277Q/E87N/F33Y/G231S/I121M/I166T/I218V/L180W/L300P/L318F/N151K/P208A/P217A/Q86R/R169H/T345S); settings: duplicated experiments, positive binder >40%
HLA-B*07:02 = HLA-B*07:02 (Homo sapiens, UniProt P01889); settings: percent relative the binding of positive control peptide […]; duplicated experiments; positive binder >40%
HLA-B*58:01 [9] = molecular target: T5, HLA-B*58:01 (Homo sapiens, UniProt P01889, A329T/C349S/D201E/D98Y/E176V/E187L/E204Q/E69T/G107R/I218V/I90N/K202T/L105A/L119I/N104I/N87E/Q89R/Q94S/R106L/R155S/R180L/R86G/S101N/S121R/S35A/S48A/T118I/V127L/V306I/V36M/Y140S/Y91M); settings: duplicated experiments, positive binder >40%
HLA-B*58:01 [10] = molecular target: T5, HLA-B*58:01
HLA-B*58:01 [11] = molecular target: T5, HLA-B*58:01; settings: time points 0-8 h
HLA-C*07:01 [12] = molecular target: T6, HLA-C*07:01 (Homo sapiens, UniProt P10321, K90N/S123Y); settings: duplicated experiments, positive binder >40%
HLA-C*07:01 [13] = molecular target: T6, HLA-C*07:01; experiment: affinity assay (ED50)
HLA-C*07:01 [14] = molecular target: T6, HLA-C*07:01; experiment: off-rate assay (t1/2); settings: time points 0-8 h
HLA-A*02:01 [15] = molecular target: T1, HLA-A*02:01; settings: […]; peptide quantity for 50% binding saturation
HLA-A*02:01 [16] = molecular target: T1, HLA-A*02:01; settings: time points 0-8 h; time when 50% of peptide has dissociated
HLA-A*68:01 [17] = molecular target: T4, HLA-A*68:01
HLA-A*68:01 [18] = molecular target: T4, HLA-A*68:01; settings: time points 0-8 h
[19] = percent relative the binding of positive control peptide […]
[20] = percent relative the binding of positive control peptide […], plate-bound monomer 0.5 µg/ml, duplicated experiments, positive binder >40%
[21] = percent relative the binding of positive control peptide FLPSDFFPSV, plate-bound monomer 0.5 µg/ml, duplicated experiments, positive binder >40%
[22] = percent relative the binding of positive control peptide RYLKDQQLL
[23] = peptide titrated 10−4 to 10−9 M
[24] = percent relative the binding of positive control peptide KTKDIVNGL
[25] = percent relative the binding of positive control peptide KIQNFRVYY
[26] = percent relative the binding of positive control peptide KTGGPIYKR
[27] = percent relative the binding of positive control peptide IAMESIVIW
[28] = percent relative the binding of positive control peptide KYFDEHYEY

Substance | Bind A*24:02 (HLA-A*24:02 [2]; [19]) [%] | Aff A*24:02 (ED50) (HLA-A*24:02 [3]) | O-rate A*24:02 (t1/2) (HLA-A*24:02 [4]) [min] | Bind A*30:01 (HLA-A*30:01; [19]) [%] | Bind A*30:02 (HLA-A*30:02 [5]; [19]) [%] | Aff A*30:02 (ED50) (HLA-A*30:02 [6]) | O-rate A*30:02 (t1/2) (HLA-A*30:02 [7]) [min] | Bind A*68:01 (HLA-A*68:01 [8]; [19]) [%] | Bind B*07:02 (HLA-B*07:02) [%] | Bind B*58:01 (HLA-B*58:01 [9]; [19]) [%] | Aff B*58:01 (ED50) (HLA-B*58:01 [10]) | Bind C*07:01 (HLA-C*07:01 [12]; [19]) [%] | Bind A*02:01 (HLA-A*02:01 [1]; [20]) [%] | further results
SMAGSSAMI | 52 | 2E -07 M | 24 | 0 | 45 | 9e-08 M | 78 | 0 | 14 | 95 | 2E -07 M | 0 |  | Bind A*02:01 (HLA-A*02:01 [1]): 81; O-rate B*58:01 (t1/2) (HLA-B*58:01 [11]): 96 min
VRAYHAMSS [Rv0288_66–74] |  |  |  |  |  |  |  | 29 |  | 10 |  | 79 |  | Aff C*07:01 (ED50) (HLA-C*07:01 [13]): 1000 nM; O-rate C*07:01 (t1/2) (HLA-C*07:01 [14]): 12 min
MYNYPAMLD [Rv0288_5–13m2] | 60 | 3e-08 M | 24 |  | 59 | 2e-06 M | 42 |  |  |  |  |  |  | 
QIMYNYPTM [Rv0288_3–11m1] | 40 | 2e-06 M | 30 | 12 | 23 |  |  |  | 5 | 9 |  |  | 51 | Aff A*02:01 (ED50) (HLA-A*02:01 [15]): 3e-06 M; O-rate A*02:01 (t1/2) (HLA-A*02:01 [16]): 42 min
AYQGVQQKW [Rv3875_50–58] |  |  | 24 |  |  |  |  |  | 10 |  |  |  |  | Bind A*02:01 (HLA-A*02:01 [1]; [21]): 0%; Bind A*24:02 (HLA-A*24:02 [2]; [22]): 60%; Aff A*24:02 (ED50) (HLA-A*24:02 [3]; [23]): 1e-08 M; Bind A*30:01 (HLA-A*30:01; [24]): 0%; Bind A*30:02 (HLA-A*30:02 [5]; [25]): 33%; Bind A*68:01 (HLA-A*68:01 [8]; [26]): 6%; Bind B*58:01 (HLA-B*58:01 [9]; [27]): 35%; Bind C*07:01 (HLA-C*07:01 [12]; [28]): 0%
QWLSANRAV | 110 | 2e-06 M | 24 | 39 | 120 | 7E -08 M | 72 | 13 | 25 | 0 |  | 11 | 21 | 
SGSEAYQGV [Rv3875_46–54] |  |  | 30 |  |  |  |  |  | 9 |  |  |  |  | Bind A*02:01 (HLA-A*02:01 [1]; [21]): 22%; Bind A*24:02 (HLA-A*24:02 [2]; [22]): 54%; Aff A*24:02 (ED50) (HLA-A*24:02 [3]; [23]): 9e-09 M; Bind A*30:01 (HLA-A*30:01; [24]): 0%; Bind A*30:02 (HLA-A*30:02 [5]; [25]): 0%; Bind A*68:01 (HLA-A*68:01 [8]; [26]): 0%; Bind B*58:01 (HLA-B*58:01 [9]; [27]): 2%; Bind C*07:01 (HLA-C*07:01 [12]; [28]): 24%
KAGCQTYKW | 140 | 7E -08 M | 114 | 13 | 45 |  |  | 25 | 9 | 193 | 3E -08 M | 31 | 22 | O-rate B*58:01 (t1/2) (HLA-B*58:01 [11]): 480 min
YNYPAMLGH [Rv0288_6–14] |  |  |  |  |  |  |  | 30 |  | 0 |  | 48 |  | Aff C*07:01 (ED50) (HLA-C*07:01 [13]): 7000 nM; O-rate C*07:01 (t1/2) (HLA-C*07:01 [14]): 18 min
YWGAQLNAM | 113 | 8e-09 M | 30 | 0 | 63 |  |  | 16 | 12 | 0 |  | 0 | 11 | 
IMYNYPTML [Rv0288_4–12m1] | 43 | 8e-07 M | 30 | 28 | 15 |  |  |  | 7 | 37 | 0.0003 M | 5 | 88 | Aff A*02:01 (ED50) (HLA-A*02:01 [15]): 4e-07 M; O-rate A*02:01 (t1/2) (HLA-A*02:01 [16]): 240 min
QT YKWETFL | 110 | 2e-08 M | 120 | 0 | 41 | 2E -08 M | 60 | 46 | 0 | 40 | 2E -08 M | 15 | 60 | Aff A*02:01 (ED50) (HLA-A*02:01 [15]): 3E -07 M; O-rate A*02:01 (t1/2) (HLA-A*02:01 [16]): 156 min; Aff A*68:01 (ED50) (HLA-A*68:01 [17]): 2E -07 M; O-rate A*68:01 (t1/2) (HLA-A*68:01 [18]): 42 min; O-rate B*58:01 (t1/2) (HLA-B*58:01 [11]): 90 min
AMEDLVRAY [Rv0288_61–69] |  |  |  |  |  |  |  | 0 |  | 14 |  | 46 |  | Aff C*07:01 (ED50) (HLA-C*07:01 [13]): 5000 nM; O-rate C*07:01 (t1/2) (HLA-C*07:01 [14]): 6 min

Reference: publication PMC3608651, “A Broad Profile of Co-Dominant Epitopes Shapes the Peripheral Mycobacterium tuberculosis Specific CD8+ T-Cell Immune Response in South African Patients with Active Tuberculosis” (PLoS ONE, 2013)
